Assay results reported in the NIST ThermoML archive (doi:10.1021/je060441j).
± gives the expanded uncertainty stated by the source.

Assays:
[1] = Liquid
[2] = xn = mol fraction of the nth substance listed; conditions: 101 kPa, Liquid, x1 = 1

| mass density ([1]; 288.15 K, 101 kPa) | mass density ([1]; 293.15 K, 101 kPa) | mass density ([1]; 298.15 K, 101 kPa) | mass density ([1]; 303.15 K, 101 kPa) | mass density ([1]; 308.15 K, 101 kPa) | mass density ([1]; 313.15 K, 101 kPa) | mass density ([1]; 298.15 K, 101.33 kPa) | mass density ([2]; 288.15 K) | mass density ([2]; 293.15 K) | mass density ([2]; 298.15 K) | mass density ([2]; 303.15 K) | mass density ([2]; 308.15 K) | mass density ([2]; 313.15 K) | SMILES |
| --- | --- | --- | --- | --- | --- | --- | --- | --- | --- | --- | --- | --- | --- |
| 1498.08 ± 0.47 kg/m3 | 1488.64 ± 0.46 kg/m3 | 1479.15 ± 0.45 kg/m3 | 1469.61 ± 0.45 kg/m3 | 1460.03 ± 0.44 kg/m3 | 1450.41 ± 0.43 kg/m3 |  |  |  |  |  |  |  | ClC(Cl)Cl [trichloromethane] |
|  |  |  |  |  |  | 873.582 ± 0.16 kg/m3 |  |  |  |  |  |  | c1ccccc1 [benzene] |
|  |  |  |  |  |  |  | 796.093 ± 0.23 kg/m3 | 791.4 ± 0.23 kg/m3 | 786.694 ± 0.23 kg/m3 | 781.966 ± 0.24 kg/m3 | 777.213 ± 0.24 kg/m3 | 772.443 ± 0.24 kg/m3 | CO [methanol] + ClC(Cl)Cl |
| 796.093 ± 0.23 kg/m3 | 791.4 ± 0.23 kg/m3 | 786.694 ± 0.23 kg/m3 | 781.966 ± 0.24 kg/m3 | 777.213 ± 0.24 kg/m3 | 772.443 ± 0.24 kg/m3 |  |  |  |  |  |  |  | CO [methanol] |
